Experiment: mn = molality of the nth substance listed, in mol/kg
Settings: 100 kPa, Liquid, Vibrating tube method

N[C@@H](Cc1ccccc1)C(=O)O [L-phenylalanine] + O
Settings | mass density [kg/m3]
273.65 K, m1 = 0.0036 | 1000.05
273.65 K, m1 = 0.011 | 1000.4
273.65 K, m1 = 0.0183 | 1000.75
273.65 K, m1 = 0.033 | 1001.44
273.65 K, m1 = 0.0443 | 1002.02
273.65 K, m1 = 0.0536 | 1002.42
273.65 K, m1 = 0.0623 | 1002.84
273.65 K, m1 = 0.074 | 1003.38
273.65 K, m1 = 0.0855 | 1003.95
273.65 K, m1 = 0.0981 | 1004.56
273.65 K, m1 = 0.1158 | 1005.44
274.15 K, m1 = 0.0036 | 1000.08
274.15 K, m1 = 0.011 | 1000.42
274.15 K, m1 = 0.0183 | 1000.77
274.15 K, m1 = 0.033 | 1001.46
274.15 K, m1 = 0.0443 | 1002.04
274.15 K, m1 = 0.0536 | 1002.44
274.15 K, m1 = 0.0623 | 1002.86
274.15 K, m1 = 0.074 | 1003.4
274.15 K, m1 = 0.0855 | 1003.96
274.15 K, m1 = 0.0981 | 1004.58
274.15 K, m1 = 0.1158 | 1005.46
274.65 K, m1 = 0.0036 | 1000.1
274.65 K, m1 = 0.011 | 1000.45
274.65 K, m1 = 0.0183 | 1000.79
274.65 K, m1 = 0.033 | 1001.48
274.65 K, m1 = 0.0443 | 1002.06
274.65 K, m1 = 0.0536 | 1002.46
274.65 K, m1 = 0.0623 | 1002.87
274.65 K, m1 = 0.074 | 1003.42
274.65 K, m1 = 0.0855 | 1003.98
274.65 K, m1 = 0.0981 | 1004.59
274.65 K, m1 = 0.1158 | 1005.47
275.15 K, m1 = 0.0036 | 1000.12
275.15 K, m1 = 0.011 | 1000.46
275.15 K, m1 = 0.0183 | 1000.81
275.15 K, m1 = 0.033 | 1001.49
275.15 K, m1 = 0.0443 | 1002.07
275.15 K, m1 = 0.0536 | 1002.47
275.15 K, m1 = 0.0623 | 1002.88
275.15 K, m1 = 0.074 | 1003.43
275.15 K, m1 = 0.0855 | 1003.99
275.15 K, m1 = 0.0981 | 1004.6
275.15 K, m1 = 0.1158 | 1005.47
275.65 K, m1 = 0.0036 | 1000.13
275.65 K, m1 = 0.011 | 1000.48
275.65 K, m1 = 0.0183 | 1000.82
275.65 K, m1 = 0.033 | 1001.5
275.65 K, m1 = 0.0443 | 1002.08
275.65 K, m1 = 0.0536 | 1002.48
275.65 K, m1 = 0.0623 | 1002.89
275.65 K, m1 = 0.074 | 1003.43
275.65 K, m1 = 0.0855 | 1003.99
275.65 K, m1 = 0.0981 | 1004.6
275.65 K, m1 = 0.1158 | 1005.47
276.15 K, m1 = 0.0036 | 1000.14
276.15 K, m1 = 0.011 | 1000.49
276.15 K, m1 = 0.0183 | 1000.83
276.15 K, m1 = 0.033 | 1001.51
276.15 K, m1 = 0.0443 | 1002.09
276.15 K, m1 = 0.0536 | 1002.48
276.15 K, m1 = 0.0623 | 1002.89
276.15 K, m1 = 0.074 | 1003.43
276.15 K, m1 = 0.0855 | 1004
276.15 K, m1 = 0.0981 | 1004.6
276.15 K, m1 = 0.1158 | 1005.47
276.65 K, m1 = 0.0036 | 1000.14
276.65 K, m1 = 0.011 | 1000.49
276.65 K, m1 = 0.0183 | 1000.83
276.65 K, m1 = 0.033 | 1001.51
276.65 K, m1 = 0.0443 | 1002.09
276.65 K, m1 = 0.0536 | 1002.48
276.65 K, m1 = 0.0623 | 1002.89
276.65 K, m1 = 0.074 | 1003.43
276.65 K, m1 = 0.0855 | 1003.99
276.65 K, m1 = 0.0981 | 1004.59
276.65 K, m1 = 0.1158 | 1005.46
277.15 K, m1 = 0.0036 | 1000.14
277.15 K, m1 = 0.011 | 1000.49
277.15 K, m1 = 0.0183 | 1000.83
277.15 K, m1 = 0.033 | 1001.51
277.15 K, m1 = 0.0443 | 1002.09
277.15 K, m1 = 0.0536 | 1002.47
277.15 K, m1 = 0.0623 | 1002.89
277.15 K, m1 = 0.074 | 1003.43
277.15 K, m1 = 0.0855 | 1003.98
277.15 K, m1 = 0.0981 | 1004.59
277.15 K, m1 = 0.1158 | 1005.45
277.65 K, m1 = 0.0036 | 1000.14
277.65 K, m1 = 0.011 | 1000.49
277.65 K, m1 = 0.0183 | 1000.83
277.65 K, m1 = 0.033 | 1001.5
277.65 K, m1 = 0.0443 | 1002.08
277.65 K, m1 = 0.0536 | 1002.47
277.65 K, m1 = 0.0623 | 1002.88
277.65 K, m1 = 0.074 | 1003.42
277.65 K, m1 = 0.0855 | 1003.97
277.65 K, m1 = 0.0981 | 1004.57
277.65 K, m1 = 0.1158 | 1005.44
278.15 K, m1 = 0.0036 | 1000.13
278.15 K, m1 = 0.011 | 1000.48
278.15 K, m1 = 0.0183 | 1000.82
278.15 K, m1 = 0.033 | 1001.49
278.15 K, m1 = 0.0443 | 1002.07
278.15 K, m1 = 0.0536 | 1002.46
278.15 K, m1 = 0.0623 | 1002.87
278.15 K, m1 = 0.074 | 1003.41
278.15 K, m1 = 0.0855 | 1003.96
278.15 K, m1 = 0.0981 | 1004.56
278.15 K, m1 = 0.1158 | 1005.42
278.65 K, m1 = 0.0036 | 1000.12
278.65 K, m1 = 0.011 | 1000.47
278.65 K, m1 = 0.0183 | 1000.81
278.65 K, m1 = 0.033 | 1001.48
278.65 K, m1 = 0.0443 | 1002.05
278.65 K, m1 = 0.0536 | 1002.44
278.65 K, m1 = 0.0623 | 1002.85
278.65 K, m1 = 0.074 | 1003.39
278.65 K, m1 = 0.0855 | 1003.94
278.65 K, m1 = 0.0981 | 1004.54
278.65 K, m1 = 0.1158 | 1005.4
279.15 K, m1 = 0.0036 | 1000.11
279.15 K, m1 = 0.011 | 1000.45
279.15 K, m1 = 0.0183 | 1000.79
279.15 K, m1 = 0.033 | 1001.47
279.15 K, m1 = 0.0443 | 1002.04
279.15 K, m1 = 0.0536 | 1002.42
279.15 K, m1 = 0.0623 | 1002.83
279.15 K, m1 = 0.074 | 1003.37
279.15 K, m1 = 0.0855 | 1003.92
279.15 K, m1 = 0.0981 | 1004.51
279.15 K, m1 = 0.1158 | 1005.38
279.65 K, m1 = 0.0036 | 1000.09
279.65 K, m1 = 0.011 | 1000.43
279.65 K, m1 = 0.0183 | 1000.77
279.65 K, m1 = 0.033 | 1001.45
279.65 K, m1 = 0.0443 | 1002.02
279.65 K, m1 = 0.0536 | 1002.4
279.65 K, m1 = 0.0623 | 1002.81
279.65 K, m1 = 0.074 | 1003.34
279.65 K, m1 = 0.0855 | 1003.89
279.65 K, m1 = 0.0981 | 1004.49
279.65 K, m1 = 0.1158 | 1005.35
280.15 K, m1 = 0.0036 | 1000.07
280.15 K, m1 = 0.011 | 1000.41
280.15 K, m1 = 0.0183 | 1000.75
280.15 K, m1 = 0.033 | 1001.42
280.15 K, m1 = 0.0443 | 1001.99
280.15 K, m1 = 0.0536 | 1002.37
280.15 K, m1 = 0.0623 | 1002.78
280.15 K, m1 = 0.074 | 1003.32
280.15 K, m1 = 0.0855 | 1003.87
280.15 K, m1 = 0.0981 | 1004.46
280.15 K, m1 = 0.1158 | 1005.32
280.65 K, m1 = 0.0036 | 1000.04
280.65 K, m1 = 0.011 | 1000.39
280.65 K, m1 = 0.0183 | 1000.73
280.65 K, m1 = 0.033 | 1001.39
280.65 K, m1 = 0.0443 | 1001.96
280.65 K, m1 = 0.0536 | 1002.35
280.65 K, m1 = 0.0623 | 1002.75
280.65 K, m1 = 0.074 | 1003.28
280.65 K, m1 = 0.0855 | 1003.83
280.65 K, m1 = 0.0981 | 1004.43
280.65 K, m1 = 0.1158 | 1005.28
281.15 K, m1 = 0.0036 | 1000.02
281.15 K, m1 = 0.011 | 1000.36
281.15 K, m1 = 0.0183 | 1000.7
281.15 K, m1 = 0.033 | 1001.36
281.15 K, m1 = 0.0443 | 1001.93
281.15 K, m1 = 0.0536 | 1002.31
281.15 K, m1 = 0.0623 | 1002.72
281.15 K, m1 = 0.074 | 1003.25
281.15 K, m1 = 0.0855 | 1003.8
281.15 K, m1 = 0.0981 | 1004.39
281.15 K, m1 = 0.1158 | 1005.24
281.65 K, m1 = 0.0036 | 999.986
281.65 K, m1 = 0.011 | 1000.33
281.65 K, m1 = 0.0183 | 1000.66
281.65 K, m1 = 0.033 | 1001.33
281.65 K, m1 = 0.0443 | 1001.9
281.65 K, m1 = 0.0536 | 1002.28
281.65 K, m1 = 0.0623 | 1002.68
281.65 K, m1 = 0.074 | 1003.21
281.65 K, m1 = 0.0855 | 1003.76
281.65 K, m1 = 0.0981 | 1004.35
281.65 K, m1 = 0.1158 | 1005.2
282.15 K, m1 = 0.0036 | 999.952
282.15 K, m1 = 0.011 | 1000.29
282.15 K, m1 = 0.0183 | 1000.63
282.15 K, m1 = 0.033 | 1001.29
282.15 K, m1 = 0.0443 | 1001.86
282.15 K, m1 = 0.0536 | 1002.24
282.15 K, m1 = 0.0623 | 1002.64
282.15 K, m1 = 0.074 | 1003.17
282.15 K, m1 = 0.0855 | 1003.72
282.15 K, m1 = 0.0981 | 1004.31
282.15 K, m1 = 0.1158 | 1005.16
282.65 K, m1 = 0.0036 | 999.913
282.65 K, m1 = 0.011 | 1000.25
282.65 K, m1 = 0.0183 | 1000.59
282.65 K, m1 = 0.033 | 1001.25
282.65 K, m1 = 0.0443 | 1001.82
282.65 K, m1 = 0.0536 | 1002.19
282.65 K, m1 = 0.0623 | 1002.6
282.65 K, m1 = 0.074 | 1003.13
282.65 K, m1 = 0.0855 | 1003.67
282.65 K, m1 = 0.0981 | 1004.26
282.65 K, m1 = 0.1158 | 1005.11
283.15 K, m1 = 0.0036 | 999.87
283.15 K, m1 = 0.011 | 1000.21
283.15 K, m1 = 0.0183 | 1000.54
283.15 K, m1 = 0.033 | 1001.21
283.15 K, m1 = 0.0443 | 1001.77
283.15 K, m1 = 0.0536 | 1002.15
283.15 K, m1 = 0.0623 | 1002.55
283.15 K, m1 = 0.074 | 1003.08
283.15 K, m1 = 0.0855 | 1003.63
283.15 K, m1 = 0.0981 | 1004.21
283.15 K, m1 = 0.1158 | 1005.06

From the NIST ThermoML archive (doi:10.1021/acs.jced.9b00752)
